# Source: patent US9796719B2, “Compounds and pharmaceutical compositions thereof for the treatment of inflammatory disorders” (GALAPAGOS NV, priority 2013, dated 2017)
# What was measured:
# [1] = target: T1, hENPP2 (UniProtKB/SwissProt Sequence ref Q13822) (Homo sapiens (Human), UniProt Q13822); test: LPC hENPP2 assay (choline release, LPC as substrate); assay type: biochemical
# Outline: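 Choline released from LPC by ENPP2 is quantified after stopping with stop-developer containing 0.6 U/mL choline oxidase, 0.6 U/mL peroxidase, 1.8 mM TOOS, 1.2 mM amino-antipyrine and 20 mM EGTA. Quinoneimine dye read at 555 nm after 30 min at room temperature.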
# [2] = target: T1, hENPP2; test: FS3 hENPP2 assay (fluorogenic substrate FS-3); assay type: biochemical; details: hENPP2, FS-3 as substrate
# Outline: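 Compound dilutions (1/5 steps, top concentration as added 20 μM) were preincubated 30 min at room temperature with hENPP2 (0.4 or 0.64 μg/mL final) in pH 8.0 Tris buffer containing NaCl, KCl, MgCl2, CaCl2 and 0.1% fatty-acid-free BSA. FS-3 (0.75 μM as added) was then hydrolysed for 30 min at 30 °C, and fluorescence was read at 485/520 nm.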
# [3] = tested on: LPA 18:2; test: Mouse whole blood (plasma) LPA assay; assay type: biochemical
# Protocol: (§1) Whole blood is collected from rats or mouse by exsanguinations on sodium heparin tube, then after centrifugation at 3000 rpm for 15 min at 4° C., plasma is stored at −80° C. Compounds are diluted in DMSO in concentration dependent manner then 0.5 μL are dispensed into 96-wells plate placed in ice. Plasma is defrosted on ice then 49.5 μL of plasma are added into the well containing 0.5 μL of compound (1% DMSO final). Plates are covered with a lid in polypropylene and incubated at +37° C., 5% CO2, for 2 h under gentle shaking (except controls which are stored at −20° C.).
# (§2) At the end of the incubation, controls are defrosted in ice and transferred in the incubated plates for LC-MS/MS analysis with a non GLP-validated method. For the analysis, plasma proteins from a 10 μL incubated plates are precipitated with an excess of methanol containing the internal standard, LPA 17:0. After centrifugation, the corresponding supernatant is injected on a C18 column. Analytes are eluted out of the column under isocratic conditions. An API5500 QTRAP mass spectrometer (ABSciex™) is used for the detection of LPA 18:2. No calibration curve is prepared for LPA 18:2, however relative quantities are evaluated based on the peak area.
# [4] = tested on: LPA 18:2; test: Rat whole blood (plasma) LPA assay; assay type: biochemical
# Protocol: as §1, §2
# [5] = tested on: cells recovered in the BALF; test: Tobacco smoke (TS) model, lungs inflammatory cells recruitment; assay type: in vivo, mouse; details: TS-exposed mice
# Protocol: The aim of this experiment is to evaluate the efficacy and potency of a test compound administered p.o., once or twice daily on days 6 to 11, vs reference compounds, on pulmonary inflammation induced by 11 days of TS-exposure in female C57BL/6J mice, by assessing the effect of a test compound on the tobacco smoke induced recruitment of inflammatory cells to the lungs.
# The test compounds are formulated in PEG200/0.5% methylcellulose (25/75, v/v) and are given at a dose volume of 10 mL/kg. Roflumilast and Dexamethasone are included as positive […] control, respectively. Each treatment group consists of 10 mice.
# A first group of mice is subjected to daily TS-exposure for 5 consecutive days and sacrificed on the day 6, 24 h after the final TS-exposure.
# A second group is exposed to air for 5 consecutive days (sham exposure) and sacrificed on the day 6, 24 h after the final air-exposure.
# Compound and reference-treated groups are subjected to daily TS-exposure for 11 consecutive days and sacrificed on the day 12, 24 h after the final TS-exposure. Mice are dosed p.o. on days 6 to 11, twice daily, 1 h prior to and 6 h after each TS-exposure, with either vehicle, or the test compound at 3, 5, 10 or 30 mg/kg. Another group is dosed p.o. on days 6 to 11, once daily, 1 h prior to each TS-exposure, with either vehicle, or the test compound at a selected dose, for example 10 mg/kg.
# An additional group is dosed p.o., once daily, on days 6 to 11, with roflumilast at 5 mg/kg, 1 h prior to each TS-exposure. Dexamethasone is dosed p.o., twice daily, on days 6 to 11, at 0.3 mg/kg, 1 h prior to and 6 h after each TS-exposure.
# For each mouse, a BAL is performed using 0.4 mL of PBS. […]
# The lungs are dissected out and the left lobes are removed, snap-frozen and stored at −80° C. […] Cell data are presented as individual data points for each animal and the mean value calculated for each group. […]
# Percentage inhibitions for the cell data are calculated using the formula below: […]
IC50 [1],IC50 [2],IC50 [3],IC50 [4],Structure (SMILES),"number of cells recovered in the BALF (macrophage cells, epithelial cells, neutrophils) ([5]; 3 mg/kg twice daily p.o.)","number of cells recovered in the BALF (macrophage cells, epithelial cells, neutrophils) ([5]; 10 mg/kg twice daily p.o.)"
100 to 500 nM,0.01 to 25 nM,> 1000 nM,–,"CCc1nc2cnc(C3=CCN(CC(=O)N4CC(O)C4)CC3)cn2c1N(C)c1nc(-c2ccc(F)cc2)c(C#N)s1 [Cpd 21, 2-((2-ethyl-6-(1-(2-(3-hydroxyazetidin-1-yl)-2-oxoethyl)-1,2,3,6-tetrahydropyridin-4-yl)imidazo[1,2-a]pyrazin-3-yl)(methyl)amino)-4-(4-fluorophenyl) thiazole-5-carbonitrile]",–,–
100 to 500 nM,–,–,> 1000 nM,"CCc1nc2cnc(N3CCN(CC(=O)N4CC(O)C4)CC3)cn2c1N(C)c1nc(-c2ccc(F)cc2)c(C#N)s1 [Cpd 2, 2-((2-ethyl-6-(4-(2-(3-hydroxyazetidin-1-yl)-2-oxoethyl)piperazin-1-yl)imidazo[1,2-a]pyrazin-3-yl)(methyl)amino)-4-(4-fluorophenyl) thiazole-5-carbonitrile]",significantly inhibited,significantly inhibited
> 1000 nM,0.01 to 25 nM,–,> 1000 nM,"CCc1nc2cnc(N3CCN(C(=O)CN4CC(O)C4)CC3)cn2c1N(C)c1nc(-c2ccc(F)cc2)c(C#N)s1 [Cpd 12, 2-((2-ethyl-6-(4-(2-(3-hydroxyazetidin-1-yl)acetoyl)piperazin-1-yl)imidazo[1,2-a]pyrazin-3-yl)(methyl)amino)-4-(4-fluorophenyl) thiazole-5-carbonitrile]",–,significantly inhibited
